# According to patent publication US4479943A, “3-Demethoxyistamycin B, the 2"-N-formimidoyl derivative thereof and pharmaceutical composition containing same” (Zaidan Hojin Biseibutsu Kagaku Kenkyu Kai, priority 1982, dated 1984):
# Assays:
# [1] = system: Staphylococcus aureus FDA 209P; assay: Antibacterial MIC, standard serial dilution; assay type: cell-based; details: nutrient agar, 37° C., 17 hours, as free base
# [2] = system: Staphylococcus aureus Smith; assay: Antibacterial MIC, standard serial dilution; assay type: cell-based; details: nutrient agar, 37° C., 17 hours, as free base
# [3] = system: Staphylococcus aureus Ap01; assay: Antibacterial MIC, standard serial dilution; assay type: cell-based; details: nutrient agar, 37° C., 17 hours, as free base
# [4] = system: Staphylococcus epidermidis 109; assay: Antibacterial MIC, standard serial dilution; assay type: cell-based; details: nutrient agar, 37° C., 17 hours, as free base
# [5] = system: Micrococcus flavus FDA 16; assay: Antibacterial MIC, standard serial dilution; assay type: cell-based; details: nutrient agar, 37° C., 17 hours, as free base
# Sarcina lutea PCI 1001 = assay: Antibacterial MIC, standard serial dilution; assay type: cell-based; details: nutrient agar, 37° C., 17 hours, as free base
# Bacillus anthracis = assay type: cell-based; details: nutrient agar, 37° C., 17 hours, as free base
# [6] = system: Bacillus subtilis PCI 219; assay: Antibacterial MIC, standard serial dilution; assay type: cell-based; details: nutrient agar, 37° C., 17 hours, as free base
# [7] = system: Bacillus subtilis NRRL B-558; assay: Antibacterial MIC, standard serial dilution; assay type: cell-based; details: nutrient agar, 37° C., 17 hours, as free base
# [8] = system: Bacillus cereus ATCC 10702; assay: Antibacterial MIC, standard serial dilution; assay type: cell-based; details: nutrient agar, 37° C., 17 hours, as free base
# [9] = system: Corynebacterium bovis 1810; assay: Antibacterial MIC, standard serial dilution; assay type: cell-based; details: nutrient agar, 37° C., 17 hours, as free base
# [10] = system: Mycobacterium smegmatis ATCC 607; assay: Antibacterial MIC, standard serial dilution; assay type: cell-based; details: nutrient agar, 37° C., 17 hours, as free base
# Escherichia coli NIHJ = assay: Antibacterial MIC, standard serial dilution; assay type: cell-based; details: nutrient agar, 37° C., 17 hours, as free base
# Escherichia coli K-12 = assay: Antibacterial MIC, standard serial dilution; assay type: cell-based; details: nutrient agar, 37° C., 17 hours, as free base
# [11] = system: Escherichia coli K-12 R388; assay: Antibacterial MIC, standard serial dilution; assay type: cell-based; details: nutrient agar, 37° C., 17 hours, as free base
# [12] = system: Escherichia coli K-12 J5R11-2; assay: Antibacterial MIC, standard serial dilution; assay type: cell-based; details: nutrient agar, 37° C., 17 hours, as free base
# [13] = system: Escherichia coli K-12 ML1629; assay: Antibacterial MIC, standard serial dilution; assay type: cell-based; details: nutrient agar, 37° C., 17 hours, as free base
# [14] = system: Escherichia coli K-12 ML1410; assay: Antibacterial MIC, standard serial dilution; assay type: cell-based; details: nutrient agar, 37° C., 17 hours, as free base
# [15] = system: Escherichia coli K-12 ML1410 R81; assay: Antibacterial MIC, standard serial dilution; assay type: cell-based; details: nutrient agar, 37° C., 17 hours, as free base
# [16] = system: Escherichia coli K-12 LA290 R56; assay: Antibacterial MIC, standard serial dilution; assay type: cell-based; details: nutrient agar, 37° C., 17 hours, as free base
# [17] = system: Escherichia coli K-12 LA290 R64; assay: Antibacterial MIC, standard serial dilution; assay type: cell-based; details: nutrient agar, 37° C., 17 hours, as free base
# Escherichia coli W677 = assay: Antibacterial MIC, standard serial dilution; assay type: cell-based; details: nutrient agar, 37° C., 17 hours, as free base
# [18] = system: Escherichia coli JR66/W677; assay: Antibacterial MIC, standard serial dilution; assay type: cell-based; details: nutrient agar, 37° C., 17 hours, as free base
# [19] = system: Escherichia coli K-12 C600 R135; assay: Antibacterial MIC, standard serial dilution; assay type: cell-based; details: nutrient agar, 37° C., 17 hours, as free base
# Escherichia coli JR225 = assay: Antibacterial MIC, standard serial dilution; assay type: cell-based; details: nutrient agar, 37° C., 17 hours, as free base
# [20] = system: Klebsiella pneumoniae PCI602; assay: Antibacterial MIC, standard serial dilution; assay type: cell-based; details: nutrient agar, 37° C., 17 hours, as free base
# [21] = system: Klebsiella pneumoniae 22#3038; assay: Antibacterial MIC, standard serial dilution; assay type: cell-based; details: nutrient agar, 37° C., 17 hours, as free base
# [22] = system: Shigella dysenteriae JS11910; assay: Antibacterial MIC, standard serial dilution; assay type: cell-based; details: nutrient agar, 37° C., 17 hours, as free base
# Salmonella typhi T-63 = assay: Antibacterial MIC, standard serial dilution; assay type: cell-based; details: nutrient agar, 37° C., 17 hours, as free base
# [23] = system: Salmonella enteritidis 1891; assay: Antibacterial MIC, standard serial dilution; assay type: cell-based; details: nutrient agar, 37° C., 17 hours, as free base
# Proteus vulgaris 0X19 = assay: Antibacterial MIC, standard serial dilution; assay type: cell-based; details: nutrient agar, 37° C., 17 hours, as free base
# Proteus rettgeri GN311 = assay: Antibacterial MIC, standard serial dilution; assay type: cell-based; details: nutrient agar, 37° C., 17 hours, as free base
# Proteus rettgeri GN466 = assay: Antibacterial MIC, standard serial dilution; assay type: cell-based; details: nutrient agar, 37° C., 17 hours, as free base
# Serratia marcescens = assay: Antibacterial MIC, standard serial dilution; assay type: cell-based; details: nutrient agar, 37° C., 17 hours, as free base
# Serratia sp. SOU = assay: Antibacterial MIC, standard serial dilution; assay type: cell-based; details: nutrient agar, 37° C., 17 hours, as free base
# Serratia sp. 4 = assay: Antibacterial MIC, standard serial dilution; assay type: cell-based; details: nutrient agar, 37° C., 17 hours, as free base
# Providencia sp. Pv16 = assay: Antibacterial MIC, standard serial dilution; assay type: cell-based; details: nutrient agar, 37° C., 17 hours, as free base
# Providencia sp. 2991 = assay: Antibacterial MIC, standard serial dilution; assay type: cell-based; details: nutrient agar, 37° C., 17 hours, as free base
# [24] = system: Pseudomonas aeruginosa A3; assay: Antibacterial MIC, standard serial dilution; assay type: cell-based; details: nutrient agar, 37° C., 17 hours, as free base
# [25] = system: Pseudomonas aeruginosa No. 12; assay: Antibacterial MIC, standard serial dilution; assay type: cell-based; details: nutrient agar, 37° C., 17 hours, as free base
# [26] = system: Pseudomonas aeruginosa H9; assay: Antibacterial MIC, standard serial dilution; assay type: cell-based; details: nutrient agar, 37° C., 17 hours, as free base
# [27] = system: Pseudomonas aeruginosa H11; assay: Antibacterial MIC, standard serial dilution; assay type: cell-based; details: nutrient agar, 37° C., 17 hours, as free base
# [28] = system: Pseudomonas aeruginosa TI-13; assay: Antibacterial MIC, standard serial dilution; assay type: cell-based; details: nutrient agar, 37° C., 17 hours, as free base
# [29] = system: Pseudomonas aeruginosa GN315; assay: Antibacterial MIC, standard serial dilution; assay type: cell-based; details: nutrient agar, 37° C., 17 hours, as free base
# [30] = system: Pseudomonas aeruginosa 99; assay: Antibacterial MIC, standard serial dilution; assay type: cell-based; details: nutrient agar, 37° C., 17 hours, as free base
# [31] = system: Pseudomonas aeruginosa B-13; assay: Antibacterial MIC, standard serial dilution; assay type: cell-based; details: nutrient agar, 37° C., 17 hours, as free base
# [32] = system: Pseudomonas aeruginosa 21-75; assay: Antibacterial MIC, standard serial dilution; assay type: cell-based; details: nutrient agar, 37° C., 17 hours, as free base
# [33] = system: Pseudomonas aeruginosa PST1; assay: Antibacterial MIC, standard serial dilution; assay type: cell-based; details: nutrient agar, 37° C., 17 hours, as free base
# [34] = system: Pseudomonas aeruginosa ROS 134/PU21; assay: Antibacterial MIC, standard serial dilution; assay type: cell-based; details: nutrient agar, 37° C., 17 hours, as free base
# [35] = system: Pseudomonas aeruginosa K-Ps 102; assay: Antibacterial MIC, standard serial dilution; assay type: cell-based; details: nutrient agar, 37° C., 17 hours, as free base
# [36] = system: Pseudomonas maltophilia GN 907; assay: Antibacterial MIC, standard serial dilution; assay type: cell-based; details: nutrient agar, 37° C., 17 hours, as free base
# mice = assay: Acute toxicity, intravenous administration in mice; assay type: in vivo
# [37] = system: gram-negative and gram-positive bacteria; assay: Antibacterial activity overall (Table 1 spectrum); assay type: cell-based; details: in words
# Pseudomonas aeruginosa = details: in words; earlier filings; cited from earlier work
structure (smiles),measurement,setting,value
"CNCC1CCC(N)C(OC2C(N)CCC(N(C)C(=O)CN)C2O)O1 (stereo not shown) [DB, 3-demethoxyistamycin B]",MIC,[1],< 0.20 µg/mL
same,MIC,[2],0.20 µg/mL
same,MIC,[3],0.39 µg/mL
same,MIC,[4],< 0.20 µg/mL
same,MIC,[5],3.13 µg/mL
same,MIC,Sarcina lutea PCI 1001,< 0.20 µg/mL
same,MIC,Bacillus anthracis,0.39 µg/mL
same,MIC,[6],< 0.20 µg/mL
same,MIC,[7],< 0.20 µg/mL
same,MIC,[8],1.56 µg/mL
same,MIC,[9],< 0.20 µg/mL
same,MIC,[10],0.39 µg/mL
same,MIC,Escherichia coli NIHJ,0.39 µg/mL
same,MIC,Escherichia coli K-12,0.78 µg/mL
same,MIC,[11],0.39 µg/mL
same,MIC,[12],0.78 µg/mL
same,MIC,[13],0.78 µg/mL
same,MIC,[14],1.56 µg/mL
same,MIC,[15],0.78 µg/mL
same,MIC,[16],0.39 µg/mL
same,MIC,[17],0.78 µg/mL
same,MIC,Escherichia coli W677,0.39 µg/mL
same,MIC,[18],0.78 µg/mL
same,MIC,[19],0.78 µg/mL
same,MIC,Escherichia coli JR225,0.78 µg/mL
same,MIC,[20],0.78 µg/mL
same,MIC,[21],1.56 µg/mL
same,MIC,[22],1.56 µg/mL
same,MIC,Salmonella typhi T-63,< 0.20 µg/mL
same,MIC,[23],1.56 µg/mL
same,MIC,Proteus vulgaris 0X19,0.39 µg/mL
same,MIC,Proteus rettgeri GN311,0.39 µg/mL
same,MIC,Proteus rettgeri GN466,0.39 µg/mL
same,MIC,Serratia marcescens,0.78 µg/mL
same,MIC,Serratia sp. SOU,3.13 µg/mL
same,MIC,Serratia sp. 4,12.5 µg/mL
same,MIC,Providencia sp. Pv16,0.78 µg/mL
same,MIC,Providencia sp. 2991,1.56 µg/mL
same,MIC,[24],0.39 µg/mL
same,MIC,[25],12.5 µg/mL
same,MIC,[26],12.5 µg/mL
same,MIC,[27],25.0 µg/mL
same,MIC,[28],6.25 µg/mL
same,MIC,[29],6.25 µg/mL
same,MIC,[30],25 µg/mL
same,MIC,[31],50 µg/mL
same,MIC,[32],50 µg/mL
same,MIC,[33],12.5 µg/mL
same,MIC,[34],50 µg/mL
same,MIC,[35],12.5 µg/mL
same,MIC,[36],100 µg/mL
same,acute toxicity,"mice; mice, intravenous, in words",low toxicity
same,tolerated dose (all treated mice),"mice; mouse, in vivo, iv, 336 h",100 mg/kg
same,antibacterial activity,[37],the most active compound
"CN(C(=O)CN)C1C(O)CC(N)C(OC2OC(CN)CCC2N)C1O (stereo not shown) [di-N^6',O^3 -demethylistamycinA]",antibacterial activity against Pseudomonas aeruginosa,Pseudomonas aeruginosa,significantly higher than the parent istamycin A
